Experimental data taken from publication PMC4359714 (Naunyn-Schmiedeberg's Archives of Pharmacology, 2015).

Experiments:
CFA-injected rats = assay: CFA-induced hypersensitivity (rearing on prickly floor); assay type: in vivo, rat; settings: 100 mg/kg p.o.; p > 0.05 vs CFA vehicle ([…] s)
Experimental: Rats were habituated in a reversed light cycle room for at least 1 week and to the testing room for 1 h prior to dosing. […] Twenty-one hours after the CFA injection, animals were treated (p.o.) with vehicle (5 % Tween 80 in OraPlus®) or TRPM8 antagonist. Two hours after drug dosing (23 h after CFA injection), rats were placed in the same Kinder Scientific open field boxes as described above but with customized prickly floor inserts placed inside. Rearing time and rearing counts were measured for 60 min.

[1] = Plasma protein binding by ultracentrifugation; assay type: in vitro ADME; settings: male, rat plasma
Experimental: The unbound fraction in plasma was determined by ultracentrifugation.

rats = assay: Open field activity; assay type: in vivo, rat; settings: 100 mg/kg, 2 h before; 60 min; not significantly different from vehicle (14,484 ± 1686 cm)
Experimental: Rats were habituated in a reversed light cycle room in home cages for at least 1 week and acclimated to the testing room for 1 h prior to dosing. TRPM8 antagonist (10, 30, or 100 mg/kg) or vehicle (5 % Tween 80 in OraPlus®) was injected 2 h before placing an animal in the open-field apparatus. Open-field activity was measured using a system that counts interruptions of a set of photobeams for the course of 60 min (Kinder Scientific, Poway, CA). To begin a session, animals were removed from the home cage and placed individually into an independent Plexiglas box (41 cm L × 41 cm W × 38 cm H) surrounded by a frame consisting of 32 photocells (16Y and 16X) that track the movement of the animal. Photobeam breaks were used as an indication of activity and were measured as the following parameters per minute: basic movements (beam breaks), distance traveled (cm), time spent (s), and number of repetitive beam breaks (i.e., stereotypic movement). Chlordiazepoxide, which consistently elicits a decrease in open field activity, was used as a positive control. Chlordiazepoxide was formulated in saline at 5.6 mg/kg i.p. and dosed 30 min before the start of the open field assay.

[2] = tested on: cold pressor effect in rats; assay: Cold-induced increase in blood pressure, cold pressor test (CPT); assay type: in vivo, rat; settings: 10 mg/kg p.o.
Experimental: 2 h prior to anesthesia with sodium pentobarbital at 60 mg/kg i.p. Blood pressure was recorded for 5 min for “pre-cold baseline” and an additional 5 min during immersion of the paws and ventral half of the body in ice water. Mean blood pressure (MBP) was derived electronically using Digi-Med Blood Pressure Analyzer (Model 400). Plasma was collected through the artery catheter immediately after the cold pressor test for pharmacokinetic analysis. Percent increase from baseline and percent inhibition attributed to treatment with test compound were then determined using the following formula: (1) percent increase from baseline (mmHg) cold pressor effect = [(cold-evoked change in MBP)/MBP pre-cold] × 100; (2) percent inhibition of cold pressor effect = [1 − (cold-evoked change in MBP post-test compound/cold-evoked change in MBP post-vehicle)] × 100.

fraction unbound at 15 min, 5 ug/mL [1]: 0.119
total distance traveled, open field (rats): 13,640 ± 623 cm
Structure (SMILES): C[C@H](NC(=O)N1CCc2cccnc2[C@H]1c1ccc(C(F)(F)F)cc1)C(F)(F)F [AMG2850, (R)-8-(4-(trifluoromethyl)phenyl)-N-((S)-1,1,1-trifluoropropan-2-yl)-5,6-dihydro-1,7-naphthyridine-7(8H)-carboxamide]
rearing time, CFA model (CFA-injected rats): 157 ± 25 s
effect on cold pressor response [2]: fully blocked
